According to PubChem BioAssay (NCI):
Several values for one entry are separate records, joined by “and”; a condition that tells them apart may be missing. Identical values can stand only once.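 Five concentrations, 48 hours, 96-well plates. GI50 = concentration required for 50% inhibition of growth. Definition used: TGI = concentration required for complete inhibition of growth.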 Where a SMILES comes first, the peptide text is derived from it. [ ]: non-standard residue; d: D form. The star is where a group is joined. ξ: configuration not given here. 4Abz = Nc1ccc(C(=O)O)cc1; ξL = CC(C)CC(N)C(=O)O; NHOH = ON*

Tests used:
Experiment in all cases: DTP human tumour cell line panel, 48 h
BT-549 breast = system: BT-549 breast
MDA-N = system: MDA-N
DLD-1 colon = system: DLD-1 colon
M19-MEL melanoma = system: M19-MEL melanoma
DMS 273 small cell lung = system: DMS 273 small cell lung
LXFL 529 NSCLC = system: LXFL 529 NSCLC
SNB-78 CNS = system: SNB-78 CNS
RXF-631 renal = system: RXF-631 renal
XF 498 CNS = system: XF 498 CNS

Row | SMILES | GI50 (BT-549 breast) | TGI (BT-549 breast) | TGI (DLD-1 colon) [µM] | TGI (M19-MEL melanoma) [µM] | TGI (LXFL 529 NSCLC) [µM] | TGI (SNB-78 CNS) [µM] | TGI (RXF-631 renal) [µM] | other results
1 | N=C(N)c1ccc(-c2ccc(-c3ccco3)o2)cc1 | 5.9 µM | 19.8 µM | – | – | – | – | – | –
2 | O=C(O)c1cc(/C=C/c2ccc(O)c(O)c2)ccc1O | – | – | – | – | – | – | – | TGI (MDA-N): > 100 µM
3 | CCCCCCCCOCC(O)COC (stereo not given) | – | – | > 100 | > 100 | > 100 | – | – | TGI (DMS 273 small cell lung): > 100 µM
4 | NC(N)=Nc1nc2cc(N)ccc2o1 | – | – | > 100 | > 100 | – | > 100 | > 100 | –
5 | COc1cc(OC)c(Oc2cccc(OC)c2OC)c(OC)c1 | – | – | > 100 | > 100 | > 100 | > 100 | – | TGI (DMS 273 small cell lung): > 100 µM; TGI (XF 498 CNS): > 100 µM
6 | COc1cc2c3c(c1OC)C1(C=CC(=O)C=C1)CC3N(C(=O)OC(C)(C)C(Cl)(Cl)Cl)CC2 (stereo not given) | – | – | 23.5 | 24.3 | 82.9 | 33.8 | – | TGI (DMS 273 small cell lung): 24.5 µM; TGI (XF 498 CNS): 23.9 µM
7 | NC(=O)c1ncn(C2CCC(CP(=O)(O)O)C2)c1N (stereo not given) | – | – | – | – | – | – | – | TGI (MDA-N): > 100 µM
8 | O=C1C=Cc2cc3ccccc3c3cccc1c23 | 9.66 µM | 51.9 µM | – | – | – | – | – | –
9 | NC(=O)NC1=NCCC(=O)N1CCc1c[nH]c2ccccc12 | – | – | – | – | – | – | – | TGI (MDA-N): 60.1 µM
10 | COc1ccc2c(c1)Cc1cc(N=[N+]([O-])c3ccc4c(c3)Cc3cc(OC)ccc3-4)ccc1-2 | – | > 100 µM | – | – | – | – | – | TGI (MDA-N): > 100 µM
11 | Cc1ccc(NC(=O)C(=O)C2C(=O)C3=C(CC2(C)C)NC2C=CC=CC2S3)c(C)c1 (stereo not given) | – | > 100 µM | – | – | – | – | – | TGI (MDA-N): > 100 µM
12 | O=C(Nc1ccc(Cl)cc1Cl)c1c/c(=N\O)c2ccc(O)cc2o1 | – | – | > 100 | > 100 | > 100 | > 100 | > 100 | –
13 | COc1ccc(/C(C#N)=C/c2nc3c(N4CCOCC4)nc(Cl)nc3n2C)cc1OC | < 0.01 µM | 0.244 µM | – | – | – | – | – | –
14 | C=C1c2c(C)nn(-c3ccccc3)c2N(C)C23C[C@@H]1C1(C)c4c(C)nn(-c5ccccc5)c4N(C)C(C)(C[C@H]12)C3 (stereo not given in full) | 5.55 µM | > 100 µM | – | – | – | – | – | –
15 | COc1ccc(-n2cc(-c3ccc(Cl)cc3)[nH]c2=S)cc1Cl | 20.5 µM | 55 µM | – | – | – | – | – | –
16 | O=C(O)/C=C/C(=O)Nc1cccc2c1-c1ccccc1C2=O | – | > 100 µM | – | – | – | – | – | TGI (MDA-N): 12.1 µM
17 | CCSc1sc(-c2ccc(C)cc2)nc1[P+](c1ccccc1)(c1ccccc1)c1ccccc1 | 0.295 µM | 1.32 µM | – | – | – | – | – | –
18 | COC(=O)C(=O)C(C(=O)C(=O)Nc1ccc(Cl)cc1Cl)c1nc2ccc(Cl)cc2[nH]c1=O (stereo not given) | – | > 100 µM | – | – | – | – | – | –

Row | SMILES | GI50 (BT-549 breast) | TGI (BT-549 breast) | TGI (DLD-1 colon) [µM] | TGI (M19-MEL melanoma) [µM] | TGI (LXFL 529 NSCLC) [µM] | TGI (SNB-78 CNS) [µM] | TGI (RXF-631 renal) [µM] | other results
19 | COC(=O)c1ccc2n[se]nc2c1 | – | – | > 100 | > 100 | > 100 | > 100 | > 100 | TGI (DMS 273 small cell lung): > 100 µM; TGI (XF 498 CNS): > 100 µM
20 | c1ccc2c(c1)N=c1ccccc1=P21c2ccccc2Nc2ccccc21 | – | 2.63 µM | – | – | – | – | – | TGI (MDA-N): 4.07 µM
21 | COc1cccc(-n2cnc3c(N/N=C/c4ccncc4)ncnc32)c1 | > 23.8 µM | > 25 µM | – | – | – | – | – | –
22 | CC(C)=CCNc1ncnc2c1ncn2C1OC(COP(=O)(O)O)C(O)C1O (stereo not given) | 2.43 µM | 6.81 µM | – | – | – | – | – | –
23 | CC(C)(C)NC(=O)C12C3C4C1C1C2C3C41I (stereo not given) | – | – | – | > 100 | > 100 | > 100 | > 100 | TGI (DMS 273 small cell lung): > 100 µM; TGI (XF 498 CNS): > 100 µM
24 | C[N+](C)(C)CC(=O)NC(=O)N/N=C\C(CC#N)CN(Cc1ccccc1)Cc1ccccc1 (stereo not given) | – | – | > 100 | > 100 | > 100 | > 100 | > 100 | TGI (DMS 273 small cell lung): > 100 µM; TGI (XF 498 CNS): > 100 µM
25 | CC(C)CC(NC(=O)[C@@H]1CCCN1C(=O)CNC(=O)c1ccc(N)cc1)C(=O)N[C@H](C)C(=O)NO (stereo not given in full) (H-[4Abz]GP[ξL][dA]-{NHOH}) | > 100 µM | > 100 µM | – | – | – | – | – | –
26 | CN1CCN(c2nc(NCCNc3ccnc4cc(Cl)ccc34)c3ccccc3n2)CC1 | 3.49 µM | 12.8 µM | – | – | – | – | – | –
27 | CCCCCCCC(=O)SCC/C=C/[C@@H]1CC(=O)NCc2cccc(n2)CN(Cc2ccc(Cl)cc2)CC(=O)N[C@@H](C(C)C)C(=O)O1 | 37.1 µM | > 100 µM | – | – | – | – | – | –
28 | O=c1c2ccccc2oc2nccnc12 | – | – | > 100 | > 100 | > 100 | > 100 | > 100 | TGI (DMS 273 small cell lung): > 100 µM; TGI (XF 498 CNS): > 100 µM
29 | NNC(=S)N/N=C(\c1nc2ccc(Cl)cc2[nH]c1=O)C(O)c1ccc(Cl)cc1Cl (stereo not given) | – | – | > 100 | > 100 | > 100 | > 100 | > 100 | TGI (DMS 273 small cell lung): > 100 µM; TGI (XF 498 CNS): > 100 µM
30 | CCCCCc1c(C)[nH]c(/C=C2\N=C(c3ccc[nH]3)C=C2Oc2ccc(OC)cc2)c1C | 0.353 µM and 0.246 µM | 2.6 µM and 2.36 µM | – | – | – | – | – | –
31 | O=C(N/C(=C\c1cc(Cl)ccc1Cl)c1nc2ccccc2[nH]1)c1ccccc1 | – | – | 37 | > 100 | > 100 | > 100 | > 100 | TGI (XF 498 CNS): 69 µM
32 | COc1ccc(-c2cc(-c3ccco3)c(C#N)c(=O)n2C2OC(OC(=O)c3ccccc3)C(OC(=O)c3ccccc3)C2OC(=O)c2ccccc2)cc1 (stereo not given) | – | – | > 100 | > 100 | > 100 | > 100 | > 100 | TGI (DMS 273 small cell lung): > 100 µM
33 | Cc1cccc2c1NC(c1c(C)[nH]c3ccccc13)C2 (stereo not given) | – | – | > 100 | > 100 | > 100 | – | > 100 | TGI (XF 498 CNS): > 100 µM
34 | Cc1c(Br)cccc1NC(=O)c1sc2nc3c(cc2c1N)CN(Cc1ccccc1)CC3 | 0.708 µM | 25.3 µM | – | – | – | – | – | –
35 | Cc1cc(C)c(-c2noc(-c3ccc(Cl)cc3)c2C2=NCCN2)c(C)c1 | – | – | 75.9 | > 100 | 44.5 | 58.3 | > 100 | TGI (XF 498 CNS): 38.4 µM
